Laboratory results from PMC6222422, “Synthesis and Biological Evaluation of Novel Indole-Derived Thioureas” (Molecules : A Journal of Synthetic Chemistry and Natural …, 2018).
≈ marks a conversion by molar mass, not a printed value.

How the values were obtained:
RSV = experiment: microbe, parasite or virus in culture; format: cell-based, human respiratory syncytial virus; settings: human respiratory syncytial virus, Vero 76, read-out: RSV EC50
YFV = experiment: microbe, parasite or virus in culture; format: cell-based; settings: Yellow fever virus, BHK, read-out: YFV EC50
S. aureus DNA gyrase = S. aureus DNA gyrase (Staphylococcus aureus, UniProt P0A0K8+P20831); experiment: S. aureus DNA gyrase supercoiling assay; format: biochemical
M. luteus ATCC 9341 = experiment: MIC, twofold serial agar dilution; format: cell-based; settings: Micrococcus luteus, ATCC9341, 18 h, 35 °C, read-out: minimal inhibitory concentrations (MIC)
M. luteus ATCC 10240 [1] = experiment: MIC, twofold serial agar dilution; format: cell-based; settings: Micrococcus luteus, ATCC10240, 18 h, 35 °C, read-out: minimal inhibitory concentrations (MIC)
M. luteus ATCC 10240 [2] = experiment: disc diffusion method; format: cell-based, Micrococcus luteus; settings: Micrococcus luteus, ATCC10240, applied 400 µg per disc, dash = lack of the growth inhibition area, read-out: diameter of growth inhibitory zone (GIZ)
S. aureus ATCC 6538 = experiment: disc diffusion method; format: cell-based, Staphylococcus aureus; settings: Staphylococcus aureus, ATCC6538, applied 400 µg per disc, dash = lack of the growth inhibition area, read-out: diameter of growth inhibitory zone (GIZ)
[3] = molecular target: T1, S. aureus topoisomerase IV (Staphylococcus aureus, UniProt P0C1S7+P0C1U9); settings: 64 to 0.5 µg/mL, Figure 2
Sb-1 = experiment: microbe, parasite or virus in culture; format: cell-based, poliovirus type-1; settings: Enterovirus C, Vero 76, read-out: Sb-1 EC50
HSV-1 = experiment: microbe, parasite or virus in culture; format: cell-based, human herpes 1; settings: Human alphaherpesvirus 1, Vero 76, read-out: HSV-1 EC50
[4] = molecular target: T1, S. aureus topoisomerase IV; experiment: biochemical

Sequence of S. aureus DNA gyrase (P0A0K8 whole entry): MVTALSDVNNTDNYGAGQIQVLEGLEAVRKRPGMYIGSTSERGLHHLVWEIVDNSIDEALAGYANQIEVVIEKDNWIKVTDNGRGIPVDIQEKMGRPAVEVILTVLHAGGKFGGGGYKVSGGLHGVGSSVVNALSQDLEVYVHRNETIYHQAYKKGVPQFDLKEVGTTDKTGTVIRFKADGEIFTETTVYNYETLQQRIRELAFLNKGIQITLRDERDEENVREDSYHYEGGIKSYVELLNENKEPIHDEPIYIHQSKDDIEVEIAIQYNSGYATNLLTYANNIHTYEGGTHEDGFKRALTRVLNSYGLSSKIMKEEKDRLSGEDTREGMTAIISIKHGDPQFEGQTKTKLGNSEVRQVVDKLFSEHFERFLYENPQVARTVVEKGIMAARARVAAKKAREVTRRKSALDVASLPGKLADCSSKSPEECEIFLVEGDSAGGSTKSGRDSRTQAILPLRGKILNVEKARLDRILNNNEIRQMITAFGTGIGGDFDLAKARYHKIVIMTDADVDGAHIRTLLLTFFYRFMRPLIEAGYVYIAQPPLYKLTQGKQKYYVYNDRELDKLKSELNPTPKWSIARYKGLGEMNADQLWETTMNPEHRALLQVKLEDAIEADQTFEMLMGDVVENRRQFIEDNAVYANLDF
Sequence of S. aureus DNA gyrase (P20831 whole entry): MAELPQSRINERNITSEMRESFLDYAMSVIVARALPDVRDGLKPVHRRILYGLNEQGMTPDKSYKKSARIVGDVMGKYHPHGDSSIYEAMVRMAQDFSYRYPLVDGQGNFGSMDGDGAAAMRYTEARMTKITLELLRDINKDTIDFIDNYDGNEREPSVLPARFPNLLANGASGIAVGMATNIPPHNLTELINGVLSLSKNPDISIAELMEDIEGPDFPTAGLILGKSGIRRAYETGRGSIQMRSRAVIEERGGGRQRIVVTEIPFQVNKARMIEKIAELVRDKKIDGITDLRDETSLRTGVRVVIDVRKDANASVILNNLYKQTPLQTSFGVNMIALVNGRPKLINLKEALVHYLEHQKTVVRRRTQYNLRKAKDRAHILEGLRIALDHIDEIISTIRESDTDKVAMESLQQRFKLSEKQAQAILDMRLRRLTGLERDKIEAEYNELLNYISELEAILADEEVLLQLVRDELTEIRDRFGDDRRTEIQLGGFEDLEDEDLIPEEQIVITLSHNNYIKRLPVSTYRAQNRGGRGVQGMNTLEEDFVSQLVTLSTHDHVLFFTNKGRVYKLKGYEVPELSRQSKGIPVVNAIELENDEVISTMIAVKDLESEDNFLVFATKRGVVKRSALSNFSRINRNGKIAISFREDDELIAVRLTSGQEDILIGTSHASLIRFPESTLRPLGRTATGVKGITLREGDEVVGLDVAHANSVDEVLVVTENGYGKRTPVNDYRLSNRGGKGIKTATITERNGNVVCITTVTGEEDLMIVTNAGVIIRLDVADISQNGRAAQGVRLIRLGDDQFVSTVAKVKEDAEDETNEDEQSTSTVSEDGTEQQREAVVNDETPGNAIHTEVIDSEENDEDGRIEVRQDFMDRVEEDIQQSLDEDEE
T1 sequence (P0C1U9 whole entry): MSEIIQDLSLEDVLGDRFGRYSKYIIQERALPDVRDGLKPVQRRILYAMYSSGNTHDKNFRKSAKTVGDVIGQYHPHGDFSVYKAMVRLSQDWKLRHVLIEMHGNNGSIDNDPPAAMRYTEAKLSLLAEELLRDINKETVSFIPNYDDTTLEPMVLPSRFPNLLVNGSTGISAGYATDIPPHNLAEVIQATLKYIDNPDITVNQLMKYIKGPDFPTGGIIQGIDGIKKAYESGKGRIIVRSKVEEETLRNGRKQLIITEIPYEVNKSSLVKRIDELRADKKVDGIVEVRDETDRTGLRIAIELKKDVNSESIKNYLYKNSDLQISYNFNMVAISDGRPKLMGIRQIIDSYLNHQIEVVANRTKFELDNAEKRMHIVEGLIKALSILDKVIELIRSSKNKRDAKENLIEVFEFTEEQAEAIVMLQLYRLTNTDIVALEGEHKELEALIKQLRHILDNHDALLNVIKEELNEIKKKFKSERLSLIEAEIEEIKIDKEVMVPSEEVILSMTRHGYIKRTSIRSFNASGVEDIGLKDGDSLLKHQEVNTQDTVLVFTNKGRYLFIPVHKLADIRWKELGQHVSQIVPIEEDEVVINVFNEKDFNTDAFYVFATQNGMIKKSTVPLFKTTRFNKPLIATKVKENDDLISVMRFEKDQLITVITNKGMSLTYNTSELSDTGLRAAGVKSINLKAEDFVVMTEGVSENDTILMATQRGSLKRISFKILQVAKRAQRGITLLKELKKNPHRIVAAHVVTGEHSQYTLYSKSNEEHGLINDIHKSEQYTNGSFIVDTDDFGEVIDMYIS
T1 sequence (P0C1S7 whole entry): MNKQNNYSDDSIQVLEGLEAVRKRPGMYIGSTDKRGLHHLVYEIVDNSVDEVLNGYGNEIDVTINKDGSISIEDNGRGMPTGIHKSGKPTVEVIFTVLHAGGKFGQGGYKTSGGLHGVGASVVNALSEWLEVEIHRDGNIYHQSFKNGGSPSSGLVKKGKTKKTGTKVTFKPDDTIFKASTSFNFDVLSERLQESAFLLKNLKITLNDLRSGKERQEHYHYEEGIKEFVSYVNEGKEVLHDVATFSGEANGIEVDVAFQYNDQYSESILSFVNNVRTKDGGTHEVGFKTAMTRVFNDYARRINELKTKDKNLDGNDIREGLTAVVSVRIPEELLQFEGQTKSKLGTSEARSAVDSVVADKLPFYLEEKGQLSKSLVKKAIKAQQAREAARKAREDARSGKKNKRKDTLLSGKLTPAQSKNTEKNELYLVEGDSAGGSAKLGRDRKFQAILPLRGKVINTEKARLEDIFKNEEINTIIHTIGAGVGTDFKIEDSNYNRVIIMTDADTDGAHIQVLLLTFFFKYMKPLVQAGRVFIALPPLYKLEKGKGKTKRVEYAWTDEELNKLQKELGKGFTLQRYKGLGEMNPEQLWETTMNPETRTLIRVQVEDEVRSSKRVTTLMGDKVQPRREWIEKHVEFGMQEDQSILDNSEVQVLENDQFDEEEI

S=C(NCCc1c[nH]c2ccccc12)Nc1cccc(Cl)c1 [Compound 14, 1-(2-(1H-Indol-3-yl)ethyl)-3-(3-chlorophenyl)thiourea]
EC50 (RSV): > 32 µM | EC50 (YFV): > 6 µM | effect against DNA gyrase (in words) (S. aureus DNA gyrase; data not shown): not significantly effective | MIC (M. luteus ATCC 9341): 200 µg/mL (≈ 606 µM) | MIC (M. luteus ATCC 10240 [1]): 12.5 µg/mL (≈ 37.9 µM) | zone of inhibition at 400 µg/disc (M. luteus ATCC 10240 [2]): 20 mm | zone of inhibition at 400 µg/disc (S. aureus ATCC 6538): 13 mm | effect against DNA topoisomerase IV (in words) [3]: not significantly effective | EC50 (Sb-1): > 32 µM | EC50 (HSV-1): > 32 µM

S=C(NCCc1c[nH]c2ccccc12)Nc1ccc(Cl)c(Cl)c1 [Compound 6, 1-(2-(1H-indol-3-yl)ethyl)-3-(3,4-dichlorophenyl)thiourea]
IC50 [4]: 79.3 µM | EC50 (RSV): > 13 µM | EC50 (YFV): > 10 µM | IC50 (S. aureus DNA gyrase; supercoiling of relaxed pBR322 DNA, 30 min, 37 °C, read-out: IC50 ± SEM, S. aureus DNA Gyrase (converted)): 199 µM | MIC (M. luteus ATCC 9341): 12.5 µg/mL (≈ 34.3 µM) | MIC (M. luteus ATCC 10240 [1]): 6.25 µg/mL (≈ 17.2 µM) | zone of inhibition at 400 µg/disc (M. luteus ATCC 10240 [2]): 23 mm | zone of inhibition at 400 µg/disc (S. aureus ATCC 6538): 16 mm | EC50 (Sb-1): > 13 µM | EC50 (HSV-1): > 13 µM
